Laboratory results as given in publication PMC10460844, “Real‐Time Monitoring of Multitarget Antimicrobial Mechanisms of Peptoids Using Label‐Free Imaging with Optical Diffraction Tomography” (Advanced Science, 2023).
In brackets after ≈: the same amount, converted by molar mass. Structures can show the parent of a compound that is named as a salt. Where two headings read alike, the source gives them in different places. Square brackets hold non-standard residues; d marks the D form. Peptide text beside a SMILES is read from it. Nspe = C[C@H](NCC(=O)O)c1ccccc1; Nphe = O=C(O)CNCc1ccccc1; Nlys = NCCCCNCC(=O)O

Columns and labels:
[1] = Analytical reversed-phase HPLC elution (hydrophobicity); type: physicochemical; conditions: analytical RP-HPLC, 1 mL/min, UV 220 nm; for HPLC elution (%ACN): Table 1, SunFire C18 […] 250 mm, water/ACN + 0.1% TFA, 5% B 2 min then linear to 100% B over 30 min, used as measure of hydrophobicity
Method in brief: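 Retention time (tR) reflects hydrophobicity, with detection at 220 nm. Elution used a 5–100% acetonitrile linear gradient over 30 min after a 2 min hold at 5%, then 5 min at 100%, with both phases containing 0.1% TFA. Column was an analytical C18 (4.6 × 250 mm, 5 μm) run at 1 mL/min.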

[2] = system: E. coli ATCC 25922; type: cell-based, Escherichia coli; conditions: mean of triplicate
Protocol: (§1) The antibacterial activity of the peptoids was evaluated against gram‐positive (Staphylococcus aureus, ATCC 25 923) and gram‐negative (Escherichia coli, ATCC 25 922) bacteria. […] The MIC of each peptoid was determined using a broth dilution assay. For each assay, the primary culture of either S. aureus or E. coli was grown overnight in cation‐adjusted Mueller Hinton broth 2 (MHB2) media at 37 °C with shaking. A secondary culture was prepared the next day, grown for 3–4 h, and then diluted in MHB2 media with a final concentration of 0.001% acetic acid and 0.02% bovine serum albumin to obtain a calculated optical density (OD) of 0.001. This corresponded to ≈2–5 × 10^5 colony‐forming units (CFU mL^−1) of bacteria. Using 96‐well polypropylene plates (Eppendorf, Hamburg, Germany), 100 µL of 2–5 × 10^5 CFU mL^−1 bacteria were added in triplicate for each peptoid. Each peptoid was assayed at six different concentrations in two‐fold serial dilutions. The maximum peptoid concentration was 25 µM. […] The MIC value determination was performed in triplicate. The MIC was defined as the lowest peptoid concentration that prevented turbidity during visual inspection.

[3] = system: S. aureus ATCC 25923; type: cell-based, Staphylococcus aureus
Protocol: as §1

[4] = system: rat erythrocytes; experiment: Hemolysis assay; type: cell-based
Method in brief: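 Washed Sprague-Dawley rat erythrocytes (10% suspension in PBS pH 7.4) mixed with peptoids (0–100 µM), 60 min at 37 °C; supernatant A540 expressed as % of 1% Triton X-100 lysis. HC10/HC50 are concentrations giving 10%/50% hemolysis; Hmax is hemolysis at 100 µM.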

[5] = system: E. faecium KCTC 13225; type: cell-based; conditions: KCTC 13225
[6] = system: E. faecalis KCTC 3511; type: cell-based; conditions: KCTC 3511
[7] = system: S. typhimurium SL 1344; type: cell-based; conditions: SL 1344
[8] = system: E. coli ATCC 25922; experiment: NPN uptake assay (outer membrane); type: cell-based; conditions: E. coli ATCC 25922, 5 mM HEPES pH 7.2, 10 µM NPN, fluorescence
Protocol: 14. In vitro biological assays […]
The ability of peptoids to increase the permeability of the outer membrane of Gram-negative bacteria was determined by measuring the incorporation of the NPN fluorescent dye into the outer membrane of E. coli ATCC 25922. Bacterial cells were suspended to a final concentration of OD600 = 0.05 in 5 mM HEPES buffer, pH 7.2, containing 5 mM KCN. Then […]
200 μL NPN dye was added to wells of a 96 well plate to produce a final concentration of 10 μM, and the background fluorescence was recorded (λex = 350 nm, λem = 420 nm). Aliquots of peptoids were added to the well, and fluorescence was recorded as a function of time until there was no further increase in fluorescence. Increases of the permeability of the outer membrane after the addition of peptoids was reflected by increased fluorescence values as a result of NPN incorporation into the membrane. […]

[9] = system: E. coli ML-35 cells; experiment: ONPG hydrolysis assay (inner membrane); type: cell-based; conditions: 1.5 mM ONPG, 10 mM sodium phosphate pH 7.4, absorbance 405 nm
Protocol: The permeability of the inner membrane was determined using E. coli ML-35 cells […]
The intact bacterial inner membrane is non-permeable to o-nitrophenyl-β-D-galactopyranoside (OPNG), a chromogenic substrate of the β-galactosidase.
Following damage to the inner membrane, OPNG enters the cells and is metabolized by β-galactosidase creating a chromogenic […]. E. coli cells were washed in 10 mM sodium phosphate (pH 7.4) containing 100 mM NaCl and resuspended in the same buffer at a final concentration of OD600 = 0.5 containing 1.5 mM ONPG. The hydrolysis of ONPG and generation of o-nitrophenol over time were monitored as absorbance change at 405 nm following the addition of peptoids. […]

[10] = system: MRC-5 human lung fibroblast cells; type: cell-based; conditions: Table S3, counter-ion exchange series; MTS assay, 24 h
Protocol: 4. Cell culture and cytotoxicity test using MTS assay
(Seoul, South Korea), human keratinocytes (HaCaT) were provided by the Skin Research Institute R&D Center of Amore Pacific Company (Yongin, South Korea). All cells were grown in Dulbecco's modified Eagle’s medium (DMEM) supplemented with 10% fetal bovine serum at 37 °C in an atmosphere containing 5% CO2. The 3-(4,5-dimethylthiazol-2- […]
assays were used to determine the effects of peptoids on cell growth.[4] Aliquots (100 µL) of media containing 1.3×10^4 MRC-5 cells/mL or 3×10^4 HaCaT cells/mL were distributed into each well of a 96-well plate (Eppendorf, Hamburg, Germany). The cells were allowed to attach and were grown in a humidified atmosphere containing 5% CO2 at 37 °C for 24 h.
When the cell density reached approximately 70% confluency, the medium was replaced with serial dilutions of the peptoid stock in DMEM and incubated for an additional 24 h. At this point, 20 µL of the CellTiter 96 aqueous non-radioactive cell proliferation assay reagent (Promega, Madison, WI, USA), which contains the tetrazolium compound, was added to each well. Plates were incubated for 4 h at 37 °C to allow time for metabolism. The MTS-formazan products in viable cells were measured at 490 nm using a microplate reader, and the percentage of cell viability (%) was calculated by comparing readings to the values of untreated wells. Percentage values of cell viability were calculated as A/(A control)×100, where A is the absorbance of the test well and A control is the average absorbance of wells containing untreated cells. […]

[11] = Table S2, broth dilution, MHB2, 37 °C 24 h, max 25 µM
[12] = Table S3, counter-ion exchange series (TFA, HCl, AcOH salts)
[13] = Table S2, broth dilution, MHB2, 37 °C 24 h, max 25 µM, mean of triplicate
[14] = Table S3, counter-ion exchange series, mean of triplicate
[15] = Table S3, counter-ion exchange series, 10% hemolysis in rat erythrocytes, mean of triplicate
[16] = Table S3, counter-ion exchange series, 50% hemolysis in rat erythrocytes, mean of triplicate
[17] = Table S3, counter-ion exchange series, hemolysis at 100 µM

Row | SMILES | HPLC elution (%ACN) [1] [%ACN] | MIC E. coli ATCC25922 [2, 11] [µM] | MIC E. coli ATCC25922 [2, 12] [µM] | MIC S. aureus ATCC25923 ([3]; ATCC 25923) [µM] | MIC S. aureus ATCC25923 [3, 13] [µM] | H max (100 µM) [4] [%] | Hmax (100 µM) [4] [%] | HC10 ([4]; red cells of rat) [µM] | HC50 ([4]; red cells of rat) [µM] | MIC E. faecium KCTC 13225 [5] [µM] | MIC E. faecalis KCTC 3511 [6] [µM] | MIC S. typhimurium SL 1344 [7] [µM] | outer membrane disruption (NPN uptake) [8] | inner membrane disruption (ONPG hydrolysis) [9] | HC10 ([4]; pH 7.4) [µM] | HC50 ([4]; pH 7.4) [µM] | MIC S. aureus ATCC25923 [3, 14] [µM] | HC10 [4, 15] [µM] | HC50 [4, 16] [µM] | Hmax (100 µM) [4, 17] [%] | other results
1 | C[C@@H](c1ccccc1)N(CC(N)=O)C(=O)CN(C(=O)CN(CCCCN)C(=O)CN(C(=O)CN(C(=O)CN(CCCCN)C(=O)CN(C(=O)CN(C(=O)CN(CCCCN)C(=O)CN(CCc1c[nH]c2ccccc12)C(=O)CN(CCc1c[nH]c2ccccc12)C(=O)CNCCCCN)[C@@H](C)c1ccccc1)[C@@H](C)c1ccccc1)[C@@H](C)c1ccccc1)[C@@H](C)c1ccccc1)[C@@H](C)c1ccccc1 [peptoid 14] | 55.6 | 3.1 (≈ 5.88 µg/mL) | 3.1 | 1.6 (≈ 3.04 µg/mL) | < 0.8 | 90.0 ± 7.3 | 112.9±2.1 | 12.5 | 21.1 | <0.8 | 1.6 (≈ 3.04 µg/mL) | 12.5 (≈ 23.7 µg/mL) | strongly disrupted | strongly disrupted | – | – | – | – | – | – | –
2 | C[C@@H](c1ccccc1)N(CC(=O)N(CCCCN)CC(=O)N(CC(=O)N(CC(N)=O)Cc1ccccc1)Cc1ccccc1)C(=O)CN(CCCCN)C(=O)CN(CCCCN)C(=O)CN(C(=O)CN(C(=O)CN(CCCCN)C(=O)CN(C(=O)CN(C(=O)CNCCCCN)[C@@H](C)c1ccccc1)[C@@H](C)c1ccccc1)[C@@H](C)c1ccccc1)[C@@H](C)c1ccccc1 [peptoid 45] (H-[Nlys][Nspe][Nspe][Nlys][Nspe][Nspe][Nlys][Nlys][Nspe][Nlys][Nphe][Nphe]-NH2) | – | > 25 | – | – | 25 (≈ 44 µg/mL) | 4.5 ± 0.2 | 4.5±0.2 | – | – | – | – | – | – | – | > 100 | > 100 | – | – | – | – | HPLC elution ([1]; Table S1, SunFire C18, water/ACN + 0.1% TFA, 5 to 100% B linear over 30 min, approximate comparison of hydrophobicity): 47.3 % MeCN
3 | C[C@@H](c1ccccc1)N(CC(N)=O)C(=O)CN(C(=O)CN(CCCCN)C(=O)CN(C(=O)CN(C(=O)CN(CCCCN)C(=O)CN(C(=O)CN(C(=O)CN(CCCCN)C(=O)CN(C(=O)CN(C(=O)CNCCCCN)[C@@H](C)c1ccccc1)[C@@H](C)c1ccccc1)[C@@H](C)c1ccccc1)[C@@H](C)c1ccccc1)[C@@H](C)c1ccccc1)[C@@H](C)c1ccccc1)[C@@H](C)c1ccccc1 [1-HCl] (H-[Nlys][Nspe][Nspe][Nlys][Nspe][Nspe][Nlys][Nspe][Nspe][Nlys][Nspe][Nspe]-NH2) | – | – | 6.3 | – | – | – | – | – | – | – | – | – | – | – | – | – | 1.6 | 27.6 | 83.3 | 61.5±0.9 | LC50 MRC-5 [10]: 11.8 µM
4 | C[C@@H](c1ccccc1)N(CC(N)=O)C(=O)CN(C(=O)CN(CCCCN)C(=O)CN(C(=O)CN(C(=O)CN(CCCCN)C(=O)CN(C(=O)CN(C(=O)CN(CCCCN)C(=O)CN(CCc1c[nH]c2ccccc12)C(=O)CN(C(=O)CNCCCCN)[C@@H](C)c1ccccc1)[C@@H](C)c1ccccc1)[C@@H](C)c1ccccc1)[C@@H](C)c1ccccc1)[C@@H](C)c1ccccc1)[C@@H](C)c1ccccc1 [peptoid 10] | 54.9 | 3.1 (≈ 5.76 µg/mL) | 3.1 | 0.8 (≈ 1.49 µg/mL) | 1.6 (≈ 2.97 µg/mL) | 108.1 ± 1.7 | 101.4±5.1 | 6.9 | 25.8 | 12.5 (≈ 23.2 µg/mL) | 12.5 (≈ 23.2 µg/mL) | 12.5 (≈ 23.2 µg/mL) | strongly disrupted | strongly disrupted | 6.6 | 17.0 | – | – | – | – | –
5 | C[C@@H](c1ccccc1)N(CC(N)=O)C(=O)CN(C(=O)CN(CCCCN)C(=O)CN(C(=O)CN(C(=O)CN(CCCCN)C(=O)CN(C(=O)CN(C(=O)CN(CCCCN)C(=O)CN(C(=O)CN(C(=O)CNCCCCN)[C@@H](C)c1ccccc1)[C@@H](C)c1ccccc1)[C@@H](C)c1ccccc1)[C@@H](C)c1ccccc1)[C@@H](C)c1ccccc1)[C@@H](C)c1ccccc1)[C@@H](C)c1ccccc1 [1-AcOH] (H-[Nlys][Nspe][Nspe][Nlys][Nspe][Nspe][Nlys][Nspe][Nspe][Nlys][Nspe][Nspe]-NH2) | – | – | 12.5 | – | – | – | – | – | – | – | – | – | – | – | – | – | 3.1 (≈ 5.64 µg/mL) | 25.0 | 78.6 | 58.2±1.7 | LC50 MRC-5 [10]: 8.6 µM
